In patent US4371466A, “Mammalian collagenase inhibitors” (American Home Products Corporation, priority 1981, dated 1983):
Non-standard residues stand in square brackets, D forms with d. Residues, ends and D or L forms follow the SMILES beside them. pGlu = O=C1CC[C@@H](C(=O)O)N1

Test system: collagenase
Test: Collagenase inhibition, acetyl 14C collagen hydrolysis (procedure of Sellers et al.)
Type: biochemical
Details: 2 mM inhibitor, 35° C., 5 to 18 hours, Tris-CaCl2 pH 7.4, versus control devoid of inhibitor
Procedure: The collagen is acetyl ^14 C collagen. The samples are centrifuged and an aliquot removed for assay on a scintillation counter. Because native collagen forms insoluble fibrils under the test conditions, the supernatant liquid contains radioactivity as a measure of hydrolysis. The collagenase activity in the presence of 2 mM inhibitor is compared to activity in a control devoid of inhibitor and the results reported as percent inhibition of collagenase activity. Each of the compounds of this invention have been established as active collagenase inhibitors by the test procedure.
The following examples illustrate the preparation of typical representative compounds of the invention. After each preparative example, the percent inhibition of collagenase activity at the 2 mM level of inhibition in accordance with the previously described standart testing procedure is provided.

Row | Molecule | Percent inhibition collagenase
1 | CC[C@H](C)[C@H](NC(=O)[C@@H](N)CS)C(N)=O [Example 1, H-L-Cys-L-Ile-NH2] (H-Cys-Ile-NH2) | 35%
2 | CC[C@H](C)[C@H](NC(=O)[C@H](CS)NC(=O)[C@@H]1CCC(=O)N1)C(N)=O [Example 2, L-pGlu-L-Cys-L-Ile-NH2] ([pGlu]-Cys-Ile-NH2) | 75%
3 | Ac-PQGIAG-NH2 [Example 3, CH3 CO-Pro-Gln-Gly-Ile-Ala-Gly-NH2] | 35%
